The results in this text go back to patent publication US9315563B2, “Peptides that inhibit angiotensin converting enzyme and peptides with antioxidant activity purified from ovotransferrin and methods of producing and using the same” (The Governors of the University of Alberta, priority 2009, dated 2016).

Where “and” joins values, the source holds several entries; their conditions need not be identical. Equal entries are not always repeated.

The experiment can be described thus: ORAC-FL assay (oxygen radical absorbance capacity). The conditions noted are these: for ORAC: chemically synthesized peptides, Trolox equivalent; for Change of antioxidant activity on extension of the peptide: ORAC, relative to GWNI, WNIP or AGWNIP; for ORAC value (sign, in words): suggesting prooxidant activity. The procedure: Briefly, 80 mM AAPH and 200 nM fluorescein in 75 mM phosphate buffer at pH 7.4 were prepared for each experiment. For each run, 20 μL of antioxidant, and 80 μL of phosphate buffer (or 100 μL of Trolox standard solutions at final concentrations of 1 to 8 μM) were placed in wells of a 96-well microplate, followed by addition of 50 μL of the fluorescein solution. The mixture was preincubated for 15 min at 37° C. 50 μL of AAPH solution was added rapidly using a multichannel pipet. The microplate was immediately placed in a Fluoroskan Ascent microplate reader (Thermo Electron Corporation) with 485-P excitation and 538-P emission filters and the fluorescence recorded every minute for 100 min. All readings were recorded using Fluoroskan Ascent software. The area under the curve of fluorescence decay (AUC) was calculated using Graphpad prism software (trial version). Regression equations between AUC and antioxidant concentrations were calculated for all the samples. The ORAC value was calculated by dividing the slope of sample regression curve by the slope of Trolox regression curve. Final ORAC values were expressed as μmol of Trolox equivalent/mg of protein or peptide.

IEWEGIESGSVEQA: the ORAC was 0.73 ± 0.16 μmol/μmol.
On the same count and under the same terms, in the case of WNIP it was 15.47 μmol/μmol and 15.47 ± 0.68 μmol/μmol.
Take AIEWEGIESGSVEQA: the ORAC stood at 0.95 ± 0.46 μmol/μmol.
Take AGWNIP: the “Change of antioxidant activity on extension of the peptide” value (shortened to “Change of antioxidant activity”) is “decreased the antioxidant activity by half” and the ORAC turned out to be 7.64 ± 0.83 μmol/μmol.
Turning to IANNEADAISLDGGQVFEAG, the ORAC was 0.43 ± 0.05 μmol/μmol.
Still for that read-out and setting: in the case of LGFEYY it was 7.25 ± 0.71 μmol/μmol; in that of GWNI, 13.90 μmol/μmol and 13.90 ± 1.05 μmol/μmol.
Still for that read-out and setting: in the case of PIAAEVYEHTEGSTTSY it was 1.68 ± 0.03 μmol/μmol.
Consider AGWNIPIGT, for which the “Change of antioxidant activity” value is listed as “did not decrease the antioxidant activity further” and the ORAC amounted to 5.25 ± 0.26 μmol/μmol.
As to LGFEY, the ORAC is on record as 9.79 ± 0.55 μmol/μmol.
In the case of LVEKGDVAFI, the ORAC is reported as −0.07 ± 0.03 μmol/μmol and the “ORAC value (sign, in words)” value is listed as “negative ORAC values”.
Turning to VIPMGL, the ORAC is listed as 2.89 ± 0.15 μmol/μmol.
Still for that read-out and setting: in the case of `Oc1cc(O)c2c(c1)O[C@H](c1ccc(O)c(O)c1)[C@@H](O)C2` [(+)-catechin, reference compound] it was 14.9 μmol/μmol.
As to LSKAQSDFG, the ORAC is given as −1.40 ± 0.69 μmol/μmol and the “ORAC value (sign, in words)” value was “negative ORAC values”.
On to AGWNI, for which the “Change of antioxidant activity” value is reported as “decreased the antioxidant activity by half” and the ORAC is recorded as 8.55 ± 0.60 μmol/μmol.
On the same counts, the results for GWNIP are “decreased the antioxidant activity by half” and 6.19 ± 0.64 μmol/μmol.
For the compound IAAEVYEHTEGSTTSY, the ORAC is 2.39 ± 0.17 μmol/μmol.
